Tests used:
Format in all cases: cell-based, human
hiPSC-CMs [1] = assay: Sarcomere alignment and contractility on micropatterns; details: C59 added to cells previously treated with CHIR (CHIR>C59)
Protocol: Cells were plated on soft substrates with micropatterned proteins on top. After 3-6 days of culture high resolution movies (Sony Microscopy) were recorded for at least 10 individual cells per group and motion velocity analysis was processed digitally. After recordings, cells were fixed and used for immunohistochemistry and confocal imaging. Sarcomere alignment was quantified with Image J software. CM maturation is accompanied by the formation of highly structured sarcomere, bi- or multinucleation, and cell cycle exit (Bassat et al., 2017; Bersell et al., 2009; Senyo et al., 2014; Uygur and Lee, 2016). […] To address this, age-matched hiPSC-CMs exposed to media containing DMSO (CTR) were compared to ones that have undergone 3 passages in media containing 2.0 μM CHIR using various phenotypic assays of CM function. To assess sarcomere alignment, CHIR and CTR hiPSC-CMs on 7:1 aspect ratio micropatterns (Ribeiro et al., 2015) were cultured and immunostained with TnT and sarcomeric actinin antibodies.

hiPSC-CMs [2] = assay: ki67/pHH3 proliferation and binucleation of hiPSC-CMs (immunofluorescence); details: day 12 hiPSC-CMs (P0), 24 hrs treatment
Protocol: Immunohistochemistry was performed with the incubation of primary antibodies overnight followed by 2 hours of incubation with various Alexa fluorescence conjugated secondary antibodies. Images were made with confocal (Zeiss LSM 710) or regular immunofluorescence microscopy (Leica DM IL LED). Primaries used in this study were cardiac troponin T (MS-295, Fisher), Ki67 (ab15580, Abcam), pHH3 (#9701, Cell Signaling), aurora B (ab2254, Abcam), alpha sarcomeric actinin ([…], Sigma-Aldrich), MLC2V (ab48003, Abcam), phospo AKT […] (#9275, Cell Signaling). […] To examine this, the percentage was determined of troponin T (TnT) positive hiPSC-CMs that express the cell cycle marker ki67 or the mitosis marker phospho-histone H3 (pHH3) at each passage after treatment with CHIR or DMSO (CTR) (FIG. 2A-C). […] The short-term (24 hrs) changes were assessed in proliferation rate of day 12 hiPSC-CMs (P0) after treatment with CHIR-, CTR-, or C59, a specific inhibitor of Wnt signaling (FIG. 2I-J).

hiPSC-CMs [3] = assay: Real-time PCR / immunostaining of cardiac gene expression in hiPSC-CMs
Protocol: For quantitative analysis of gene expression, RNA was extracted with a lysis buffer (Qiagen) from hiPSC-CMs and stored at −80° C. Total RNA from each sample was purified from cell lysate using a RNA purification kit (Qiagen). cDNA was made using iScript cDNA synthesis kit (BioRad). Quantitative PCR was performed using a 96-well thermocycler system (Biorad) with SYBR Green substrate (Affymetrix) for 40 cycles. All primers sequences were obtained from the PrimerBank (Massachusetts General Hospital/Harvard Medical School) online database. […] Day 12 hiPSC-CMs were cultured in CHIR continuously for 2 months with serial passaging followed by CHIR withdrawal for an additional month.

hiPSC-CMs [4] = assay: CHIR-mediated hiPSC-CM proliferation with pathway inhibitors
TCF/LEF = assay: TOPFlash TCF/LEF luciferase reporter in day 12 hiPSC-CMs
Protocol: Day 12 hiPSC-CMs were transfected for 48h with a TCF reporter plasmid (TOPflash M50, Addgene) or the mutant reporter plasmid (TOPflash M51, Addgene) and the use of Lipofectamine 3000 (Invitrogen). 72h after transfection cells were treated with various small molecules for 24h. Cells were lysed and mixed with luciferase substrate (Promega) and the firefly luciferase expression was measured with a 96-well micro plate reader (Fisher).

hiPSC-CMs [5] = assay: Cell cycle activity in well-differentiated hiPSC-CMs (ki67, pHH3, cell count); details: 5 μM VPC23019 together with S1P
Protocol: To address this, well-differentiated hiPSC-CMs were generated (e.g. day 30 or later) using chemically-defined protocols (Burridge et al. 2014; Churko et al. 2013; Sharma et al. 2015) (Movie S1) and treated them with S1P/LPA or CHIR or both (FIG. 18A). The presence of S1P/LPA receptors in these cells was first validated (FIG. 21). Immunofluorescence staining was then performed for ki67, a marker of cell cycle activity, and phospho Histone H3 (pHH3), a mitosis marker, in cardiac troponin T (TnT) positive cells.

YAP = YAP nuclear accumulation in hiPSC-CMs; details: day 10 or day 30 hiPSC-CMs
Protocol: Given the well-known role of Hippo/Yap signaling in regulating cardiomyocyte and non-myocyte proliferation and regeneration (Yusuf et al. 2012; Heallen et al. 2011; Morikawa et al. 2017; Leach et al. 2017; von Gise et al. 2012), the ability of bioactive lipids was assessed to promote nuclear accumulation of Yap (FIG. 23). […] Consequently, no increase in nuclear YAP accumulation was observed following bioactive lipid treatment (FIG. 23B).

hiPSC-CMs [6] = assay: Wnt receptor ligands on hiPSC-CM expansion and cell-cycle reactivation; details: day 12 proliferative hiPSC-CMs
Description: Reactivating Wnt signaling may promote proliferation in aged, non-proliferative CMs rather than simply maintain pre-existing proliferation (FIG. 6A). […]

Cc1cc(-c2ccc(CC(=O)Nc3ccc(-c4cccnc4)cc3)cc2)ccn1 [C59]
sarcomere organization after C59 (hiPSC-CMs [1]): reorganization of their sarcomeres to a state similar to the age-matched control hiPSC-CMs
ki67 expression / proliferation rate (hiPSC-CMs [2]): did not result in a decreased rate of hiPSC-CM proliferation
expression of maturation, excitation, contractility and metabolism markers (hiPSC-CMs [3]; 3 additional weeks after CHIR day 12 to 28, compared with continued CHIR): upregulation of markers associated with cardiomyocyte maturation
MYL2 immunofluorescence staining (hiPSC-CMs [3]; compared with CHIR-treated cells): increase in immunofluorescence staining for MYL2

NC1(c2ccc(-c3nc4ccn5c(=O)[nH]nc5c4cc3-c3ccccc3)cc2)CCC1 [MK2206]
mitotic cells expressing pAKT (hiPSC-CMs [4]; CHIR and MK2206 vs CHIR alone): far fewer mitotic cells
CM replication (hiPSC-CMs [4]; CHIR and MK2206 vs CHIR alone, 6 days): decreased
TCF/LEF luciferase activity (TCF/LEF; CHIR and MK2206, 24 hrs): not due to the downregulation of downstream β-catenin signaling

Cc1ccc(/C=N/NC(=O)c2ccccc2Oc2ccccc2)o1 [PNU74654]
decrease of CHIR-mediated hiPSC-CM proliferation (hiPSC-CMs [4]; CHIR in the presence of PNU74654 vs CHIR alone): ~50%
CHIR-induced Wnt target gene expression (hiPSC-CMs [3]; co-treatment with CHIR, qPCR): abolish this increase
markers of hiPSC-CM maturation (MYL2, MYH7, MYOM1) (hiPSC-CMs [3]; co-treatment with CHIR, qPCR): recovered fully
CHIR-induced activation of TCF/LEF luciferase reporter (TCF/LEF; CHIR in the presence of PNU74654, 24 hrs): abolished

CCCCCCCCc1cccc(NC(=O)[C@H](N)COP(=O)(O)O)c1 [VPC23019]
expression of ki67 in S1P-treated hiPSC-CMs (hiPSC-CMs [5]): reduced

lysophosphatidic acid [LPA]
YAP nuclear accumulation (YAP): No significant (N.S.) increase in YAP nuclear accumulation

B1: Wnt3A: purified Wnt3A protein (R&D systems), Wnt receptor ligand (protein, UniProt P56704 19-352, looked up)
Protein Wnt-3a: SYPIWWSLAVGPQYSSLGSQPILCASIPGLVPKQLRFCRNYVEIMPSVAEGIKIGIQECQHQFRGRRWNCTTVHDSLAIFGPVLDKATRESAFVHAIASAGVAFAVTRSCAEGTAAICGCSSRHQGSPGKGWKWGGCSEDIEFGGMVSREFADARENRPDARSAMNRHNNEAGRQAIASHMHLKCKCHGLSGSCEVKTCWWSQPDFRAIGDFLKDKYDSASEMVVEKHRESRGWVETLRPRYTYFKVPTERDLVYYEASPNFCEPNPETGSFGTRDRTCNVSSHGIDGCDLLCCGRGHNARAERRREKCRCVFHWCCYVSCQECTRVYDVHTCK
CM expansion (TnT positive cell number) (hiPSC-CMs [6]): promoted CM expansion

— patent publication US12516293B2, “Reagents and methods with Wnt agonists and bioactive lipids for generating and expanding cardiomyocytes” (The Board of Trustees of the Leland Stanford Junior …, priority 2018, dated 2026)
